Read-outs that look alike come from different tables or passages of the source.
Assays:
HUVEC cells = assay: Endothelial cell proliferation assay (CCK-8); assay type: cell-based, Human; conditions: 18 hours exposure, CCK-8 assay, n = 9
Protocol: Anti-angiogenic drugs were screened in a concentration gradient in the HUVEC culture assay. […] Cell proliferation was assessed using a CCK-8 assay (Dojindo). Statistical analysis by two-way Anova. Error represents the standard error of the mean.
HUVEC cells were purchased from ATCC (Manassas, VA) and cultured as previously described. No further authentication was performed. Cells were seeded at 6.5 × 10^4 cells per well in 100 μL of medium per well. Drugs were diluted in prewarmed DMEM. Serial dilutions were performed from 1000–0.1 nM. The cells were left to grow for 18 hours with exposure to vehicle control (DMSO) or drugs. Experiments were done in triplicate each time. Cellular proliferation was assessed using a CCK-8 assay (Dojindo, Rockville, MD). All plates were read at 450 nm.

[1] = tested on: fli1:EGFP zebrafish embryos; assay: fli1:EGFP zebrafish embryo exposure: survival and intersegmental vessel development; assay type: in vivo; conditions: for survival: 24 hours after exposure; for relative potency in reducing vessel outgrowth: concentration gradient, within 24 hours of drug exposure
Protocol: We then examined the extent and nature of the anti-angiogenic effects of the compounds using transgenic fli1:EGFP zebrafish embryos. The vasculature of these fish is tagged with EGFP and the transparency of the zebrafish allows for visualization of the forming blood vessels and any effect of anti-cancer drugs on their development over time (Fig. 4). A known anti-angiogenic and teratogenic compound (CPS49) was screened alongside the drugs as a positive control at 10 μg/mL (30 μM), a previously established anti-angiogenic concentration.
fli1:EGFP zebrafish were obtained from the Zebrafish international Resource Centre[29] and maintained in an approved aquarium habitat at 28 °C. At 24 hours post fertilization (hpf) the embryos were checked for GFP expression using a fluorescent microscope and manually dechorionated with forceps, exposed to either a vehicle control, or an anti-angiogenic anti-cancer compound (at 24 hpf) for 24 hours and imaged at 48 hpf. At this point the embryos were anaesthetized in 0.1% tricaine and the length and number of intersegmental vessels (ISV) were quantified as previously described. A minimum of 10 embryos were screened per drug, per concentration, and experiments were performed in triplicate.

Rabbit = conditions: cited from earlier work; for Systemic exposure (AUC) compared to human exposure: exposure at which defects were produced
Rat = conditions: cited from earlier work; for Systemic exposure (AUC) compared to human exposure: exposure at which defects were produced
[2] = human; cited from earlier work
chicken embryos [3] = conditions: for survival rate: 48 hours post drug application
Protocol: We then administered the compounds to developing chicken embryos to observe any teratogenic effects. […] At 48 hours post drug application both the survival rate and the incidence of defects were analyzed. A range of concentrations was tested to determine the effects and optimal concentration that was not 100% lethal.
Fertilized white leghorn chicken embryos purchased from Henry Stewart Ltd. (Herefordshire, United Kingdom) were maintained in an incubator as described previously. At Hamburger and Hamilton stage 18–20 (E2.5-3)[54] the eggs were windowed and the embryos were prepared for drug exposure. To establish a dose response the drugs were applied once to the embryos and growth was monitored as described previously. In a second set of experiments, filter paper squares were cut 100 μm × 100 μm and soaked in the compound of interest for 10 minutes. While the filter paper squares absorbed the solution, embryonic membranes were removed and the sponge was then placed onto the limb bud. The eggs were sealed with tape and returned to an incubator. The embryos were checked daily for developmental defects and to ensure the filter paper squares remained in place. Control embryos were treated with 100 μL PBS with 0.1% DMSO. Embryos were removed from the eggs and fixed in 5% TCA at 4 degrees for 24 hours. Embryos were then washed in alcian blue for 8 hours, and placed in acid ethanol over night before being dehydrated in 100% ethanol for three one hour treatments. The tissue was then cleared in methyl salicylate. Cartilage was imaged and subsequently measured using a graticule scale and ImageJ. A minimum of 8 embryos was used per drug, per concentration. All animal work was licensed and carried out in accordance with and with approval of UK Home Office and Institutional ethical and welfare guidelines.

chicken embryos [4] = conditions: cited from earlier work
[5] = tested on: Mouse (strain specific) Rabbit; parameters: method as in PMID 11006136; conditions: cited from earlier work
Mouse = conditions: cited from earlier work
[6] = 2.5 μg/embryo, global treatment

Compound	IC50 (HUVEC cells; Homo sapiens)	survival ([1]; 10 μg/mL)	survival ([1]; 50 μg/mL)	survival ([1]; 100 μg/mL)	relative potency in reducing vessel outgrowth [1]	Systemic exposure (AUC) compared to human exposure (Rabbit; Rabbit)	Systemic exposure (AUC) compared to human exposure (Rat; Rat)	Clinical Toxicities [2]	survival rate (chicken embryos [3]; 5 μg/embryo, global treatment)	Defects produced in chicken embryos (chicken embryos [3]; in vivo)	defects observed in treated embryos (chicken embryos [3]; in vivo)	Defects produced (Rabbit; Rabbit)	Defects produced (Rat; Rat)	survival rate (chicken embryos [3]; 10 μg/embryo, global treatment)	Defects produced in chicken embryos (chicken embryos [3]; Table 1 summary)	also measured
CCN(CC)CCNC(=O)c1c(C)[nH]c(/C=C2\C(=O)Nc3ccc(F)cc32)c1C [Sunitinib, sunitinib]	< 10 nM	61.90%	21.05%	0%	most potent	0.3×	5.5×	Cardiotoxicity	72%	Embryolethality increased, limb, spinal, microopthalmia, growth inhibition, necrosis of YSM	in most embryos limb defects were observed, some also exhibited microopthalmia and spinal cord twisting	–	–	–	–	Defects produced (Rabbit; rabbit, in vivo): Increased embryolethality, cleft palate malformations; Defects produced (Rat; rat, in vivo): Embryolethality increased, fetal skeletal malformations (ribs/vertebrae)
O=C1CCC(N2C(=O)c3ccccc3C2=O)C(=O)N1 (stereo not shown) [Thalidomide, thalidomide]	–	–	–	–	–	–	–	Somnolence, constipation, neuropathy, venous thromboembolism and rash/unknown	–	–	–	–	–	–	–	Defects produced in chicken embryos (chicken embryos [4]; thalidomide not tested in this paper): Embryolethality, cranial hemorrhaging, micropthalmia, limb defects, spine; Defects produced [5]: Increased resorptions, embryotoxicity, eye defects; Systemic exposure (AUC) compared to human exposure [5]: At recommended human dose/Not applicable
CNC(=O)c1cc(Oc2ccc(NC(=O)Nc3ccc(Cl)c(C(F)(F)F)c3)cc2)ccn1 [Sorafenib, sorafenib]	< 50 nM	18.18%	15.38%	No embryos survived	most potent	0.008×	0.008×	Cardiotoxicity	54.5%	Embryolethality increased, limb, growth inhibition, necrosis of YSM	–	Increased post implantation loss, resorptions, skeletal retardations, retarded fetal weight	Increased post implantation loss, resorptions, skeletal retardations, retarded fetal weight	47%	–	–
Nc1cccc2c1C(=O)N(C1CCC(=O)NC1=O)C2=O (stereo not shown) [pomalidomide]	–	–	–	–	–	–	–	–	–	–	–	–	–	–	–	teratogenicity in chicken embryos (chicken embryos [4]; at potent anti-inflammatory doses): not teratogenic
bevacizumab	–	–	–	–	–	–	–	–	–	–	–	–	–	–	–	teratogenicity in rabbits (Rabbit; rabbit, in vivo, iv): teratogenicity; embryotoxicity in rats (Rat; rat, in vivo): embryotoxicity; placental transfer in rats (Rat; rat, in vivo): dose-dependent placental transfer
Cc1ccc(Nc2nccc(N(C)c3ccc4c(C)n(C)nc4c3)n2)cc1S(N)(=O)=O [Pazopanib, pazopanib]	–	did not affect the survival	83.33%	50%	most potent	0.02×	0.1×	Cardiotoxicity	30%	–	malformation of the blood vessels and necrosis in the YSM, and twisted spinal cords	Increased post-implantation loss, abortion, 100% litter loss	Teratogenic, embryotoxic, fetotoxic & abortifacient. Cardiovascular malformations, incomplete/absent ossification, reduced fetal body weight, pre- and post-implantation embryolethality	–	Embryolethality increased, limb, spine, necrosis of YSM	IC50, endothelial cell proliferation (HUVEC cells): one of the highest IC50s in vitro; survival rate (chicken embryos [3]; 1 μg/embryo, global treatment): 16%; survival rate (chicken embryos [3]; [6]): 22%
CO[C@H]1C[C@@H]2CC[C@@H](C)[C@@](O)(O2)C(=O)C(=O)N2CCCC[C@H]2C(=O)O[C@H]([C@H](C)C[C@@H]2CC[C@@H](OCCO)[C@H](OC)C2)CC(=O)[C@H](C)/C=C(\C)[C@@H](O)[C@@H](OC)C(=O)[C@H](C)C[C@H](C)/C=C/C=C/C=C/1C [Everolimus, everolimus]	< 10 nM	did not impact the survival	did not impact the survival	35.71%	least potent	1.6×	0.04×	Stomatitis, noninfectious pneumonitis, rash, hyperglycemia and immunosuppression	80%	Embryolethality increased, limb, spine, microopthalmia, necrosis of YSM	hemorrhaging, spinal cord twisting and necrosis in the YSM	Increased resorptions	Increased resorption, pre- and post-implantation loss, decreased numbers of live fetuses, malformation and retarded skeletal development	62.5%	–	–
COc1cc2c(Nc3ccc(Br)cc3F)ncnc2cc1OCC1CCN(C)CC1 [Vandetanib, vandetanib]	–	60%	15.38%	10%	least potent	–	–	Cardiotoxicity	no death occurred	–	limb reductions, micropthalmia, twisted spinal cords, and necrosis and hemorrhaging in the YSM	–	Increased pre- & post-implantation loss, malformations of heart vessels, skeletal variations, delayed ossification of the skull, vertebrae & sternum.	74%	Embryolethality increased, limb, spine, microopthalmia, necrosis of YSM	–
O=C1c2c(F)c(F)c(F)c(F)c2C(=O)N1c1ccc(F)cc1F [CPS49]	–	50%	–	–	–	–	–	–	–	–	–	–	–	–	Embryolethality, cranial hemorrhaging, micropthalmia, limb defects, spine	IC50 (HUVEC cells): < 50 nM; blood vessel outgrowth and number of forming vessels ([1]; 10 μg/mL (30 μM), versus vehicle control 0.1% DMSO): significant reduction in both blood vessel outgrowth and the number of forming vessels; anti-angiogenic activity in chicken embryo (chicken embryos [4]; 10 μg/embryo): potent anti-angiogenic activity
CNC(=O)c1ccccc1Sc1ccc2c(/C=C/c3ccccn3)n[nH]c2c1 [Axitinib, axitinib]	–	40%	42.12%	38.89%	–	–	–	Cardiotoxicity	no embryos survived	–	–	–	–	–	Embryolethality increased, limb, growth inhibition, necrosis of YSM	Systemic exposure (AUC) compared to human exposure (Mouse; Mouse/Mice): 10×; Defects produced (Mouse; mouse, in vivo): Increased post implantation loss, cleft palate malformation, variation in skeletal ossification; survival rate (chicken embryos [3]; [6]): 55.5%; defects observed in treated embryos (chicken embryos [3]; global treatment, surviving embryos): most embryos exhibited necrosis within the surrounding YSM and hemorrhaging

From publication PMC4957076, “Shared mechanism of teratogenicity of anti-angiogenic drugs identified in the chicken embryo model” (Scientific Reports, 2016)
